Experimental data taken from PubChem BioAssay AID2036 (NMMLSC, 2009).
Calls of active or inactive are those of the source. How the calls were made is not given here.

Target: Ras-related protein Rab7, wildtype (dog)
Experiment: Rab7 GTP binding inhibitors, further analogs, SAR follow-up, biochemical, additional analogs, wildtype, multiplex bead flow cytometry (AID 2036)
Conditions: not given

Compound | EC50
O=Nc1c(-c2c(O)[nH]c3c(Cl)cccc23)[nH]c2ccccc12 | inactive
O=C1C(c2c(O)[nH]c3c(Br)cccc23)=Nc2ccccc21 | inactive
O=C1C(c2c(O)[nH]c3ccccc23)=Nc2ccccc21 | inactive
O=C1C(c2c(O)[nH]c3c(Cl)cccc23)=Nc2ccccc21 | inactive
O=Nc1c(-c2c(O)[nH]c3ccc(Br)cc23)[nH]c2ccccc12 | inactive
O=C1N=c2ccccc2=C1c1[nH]c(=O)[nH]c1O | inactive
O=Nc1c(-c2c(O)[nH]c3c(Br)cccc23)[nH]c2ccccc12 | inactive

Results, then the compound that gave them:

EC50 | Compound
inactive | O=C1N=c2ccccc2=C1c1[nH]c(=S)[nH]c1O
inactive | O=C1C(c2c(O)[nH]c3c(F)cccc23)=Nc2ccccc21
inactive | O=Nc1c(-c2c(O)[nH]c3ccccc23)[nH]c2ccccc12
inactive | O=Nc1c(-c2c(O)[nH]c3c(F)cccc23)[nH]c2ccccc12
inactive | O=C1C(c2c(O)[nH]c3ccc(Br)cc23)=Nc2ccccc21

Same assay, conditions: measured here: Ki from EC50

Compound | Ki [nM]
CC(C)Cc1ccc([C@H](C)C(=O)O)cc1 | 310
CSc1ccc(/C=C2/C(C)=C(CC(=O)O)c3cc(F)ccc32)cc1 | 2700

The next lines start with the values.

Ki [nM] | Compound
870 | O=C1N=c2ccccc2=C1c1[nH]c(=S)[nH]c1O
2170 | COc1cc(-c2c(C#N)c(N)n(S(=O)(=O)c3c(C(C)C)cc(C(C)C)cc3C(C)C)c2C(=O)c2ccccc2)cc(OC)c1OC
1560 | O=C1C(c2c(O)[nH]c3c(F)cccc23)=Nc2ccccc21
540 | COc1ccc(S(=O)(=O)n2c(N)c(C#N)c(-c3cncc(Br)c3)c2C(=O)c2ccccc2)cc1
